For the assay, the target named is Rhesus PDE2A3 (Macaca mulatta, UniProt B3VTJ2). The assay can be described thus: PDE2 fluorescence polarization (IMAP FP) assay, rhesus PDE2A3. Format: biochemical, rhesus macaque. The conditions noted are these: Lab B, read-out: Rhesus PDE2 Ki (nM) Lab B. The method, then: A Labcyte Echo 555 (Labcyte, Sunnyvale, Calif.) is used to dispense 200 nL from each well of the titration plate to the 384 well assay plate. Ten microliters of a solution of enzyme (1/2000 final dilution from aliquots; sufficient to produce 20% substrate conversion) was added to the assay plate. Next 10 uL of a separate solution of the substrate FAM-labeled cAMP (50 nM final concentration product # R7506 from Molecular Devices) and the activator cGMP (1 uM final concentration), prepared in the assay buffer (10 mM Tris HCl, pH 7.2, 10 mM MgCl2, 0.05% NaN3 0.01% Tween-20, and 1 mM DTT) was added to the assay plate and shaken to mix. The reaction is allowed to proceed at room temperature for 60 minutes. A binding solution is then made from the kit components, comprised of 80% Solution A, 20% Solution B and binding reagent at a volume of 1/600 the total binding solution. The enzymatic reaction is stopped by addition of 60 μL of the binding solution to each well of the assay plates and the plates are sealed and shaken for 30 seconds. The plate was incubated at room temperature for at least one hour prior to determining the fluorescence polarization (FP). The parallel and perpendicular fluorescence of each well of the plate was measured using a Tecan Genios Pro plate reader (Tecan, Switzerland) or Perkin Elmer EnVision™ plate reader (Waltham, Mass.). Fluorescence polarization (mP) was calculated from the parallel (S) and perpendicular (P) fluorescence of each sample well and the analogous values for the median control well, containing only substrate (So and Po), using the following equation: Polarization (mP)=1000*(S/So−P/Po)/(S/So+P/Po).
Rhesus PDE2A3, sequence (B3VTJ2 1-941): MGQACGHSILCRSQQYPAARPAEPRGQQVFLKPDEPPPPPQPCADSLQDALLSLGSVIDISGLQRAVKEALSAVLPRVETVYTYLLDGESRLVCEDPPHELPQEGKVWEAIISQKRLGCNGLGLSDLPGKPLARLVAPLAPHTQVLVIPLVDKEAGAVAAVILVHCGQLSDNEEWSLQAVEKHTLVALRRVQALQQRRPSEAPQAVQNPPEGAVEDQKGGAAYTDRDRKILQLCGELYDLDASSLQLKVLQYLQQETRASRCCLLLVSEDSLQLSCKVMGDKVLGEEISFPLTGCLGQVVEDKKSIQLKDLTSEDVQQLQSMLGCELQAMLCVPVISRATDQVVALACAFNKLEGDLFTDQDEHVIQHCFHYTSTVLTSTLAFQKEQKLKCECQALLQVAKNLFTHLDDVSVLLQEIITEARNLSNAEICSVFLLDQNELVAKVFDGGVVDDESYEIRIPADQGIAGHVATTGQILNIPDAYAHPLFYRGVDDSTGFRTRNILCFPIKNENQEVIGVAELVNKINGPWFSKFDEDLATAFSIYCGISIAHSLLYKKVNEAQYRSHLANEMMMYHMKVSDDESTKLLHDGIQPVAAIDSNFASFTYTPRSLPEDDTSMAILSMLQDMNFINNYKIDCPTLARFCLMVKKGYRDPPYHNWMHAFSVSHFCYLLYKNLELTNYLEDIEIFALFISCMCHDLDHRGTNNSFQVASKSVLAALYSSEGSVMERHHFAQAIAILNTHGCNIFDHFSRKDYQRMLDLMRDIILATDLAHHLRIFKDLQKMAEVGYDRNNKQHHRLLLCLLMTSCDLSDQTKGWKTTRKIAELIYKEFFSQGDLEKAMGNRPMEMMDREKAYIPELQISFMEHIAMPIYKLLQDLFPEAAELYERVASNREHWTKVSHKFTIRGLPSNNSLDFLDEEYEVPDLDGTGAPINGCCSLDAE
Dose-inhibition profiles for each compound were characterized by fitting the mP data to a four-parameter equation given below.
An apparent (KM) for FAM-labeled cAMP of ˜10 uM was used.
A general note: In fluorescence polarisation assays a small probe gives low polarisation when free and higher when bound to something large.

Usually Ki stands for a measure of affinity in units of concentration, obtained from inhibition or displacement. On to `CC(C)(C)C(c1ccc(C(F)(F)F)cc1)n1nc(CO)c2c(=O)[nH]c(O)nc21` (single isomer, unassigned) [Example 30, (S)- or (R)-1-(2,2-Dimethyl-1-(4-(trifluoromethyl)phenyl)propyl)-6-hydroxy-3-(hydroxymethyl)-1H-pyrazolo[3,4-d]pyrimidin-4(5H)-one], for which the Ki came to 2040 nM.
The same measure for `CC(C)(C)C(c1ccc(C(F)(F)F)cc1)n1nc(CF)c2c(=O)[nH]c(O)nc21` (single isomer, unassigned) [Example 51]: 123 nM.
The same measure for `CC(C)(C)C(c1ccc(C(F)(F)F)cc1)n1nc(CF)c2c(=O)[nH]c(O)nc21` (single isomer, unassigned) [Example 52]: 910 nM.
The value for `CCC(c1ccc(CC(F)(F)F)c(F)c1)n1nc(CO)c2c(=O)[nH]c(N(C)C)nc21` (single isomer, unassigned) [Example 96, (R)- or (S)-6-(Dimethylamino)-1-(1-(3-fluoro-4-(2,2,2-trifluoroethyl)phenyl)propyl)-3-(hydroxymethyl)-1H-pyrazolo[3,4-d]pyrimidin-4(5H)-one] was 0.5 nM; that for `CCC(c1ccc(C(F)F)c(F)c1)n1nc(CO)c2c(=O)[nH]c(N(C)C)nc21` (single isomer, unassigned) [Example 147] was 0.54 nM; that for `CC(C)C(c1ccc(C(F)(F)F)c(F)c1)n1nc(CF)c2c(=O)[nH]c(N(C)C)nc21` (single isomer, unassigned) [Example 220, (R)- or (S)-6-(Dimethylamino)-1-(1-(3-fluoro-4-(trifluoromethyl)phenyl)-2-methylpropyl)-3-(fluoromethyl)-1H-pyrazolo[3,4-d]pyrimidin-4(5H)-one] was 0.5 nM.
In the case of `O=c1[nH]c(O)nc2c1c(CC(F)(F)F)nn2C(c1ccc(C(F)(F)F)cc1)C1CC1` (single isomer, unassigned) [Example 227], the Ki turned out to be 12 nM.
The same measure for `O=c1[nH]c(O)nc2c1c(CC(F)(F)F)nn2C(c1ccc(C(F)(F)F)cc1)C1CC1` (single isomer, unassigned) [Example 228]: 210 nM; for `CC(C)C(c1ccc(OC(F)(F)F)cc1)n1nc(CC(F)(F)F)c2c(=O)[nH]c(O)nc21` (single isomer, unassigned) [Example 232, (R)- or (S)-6-Hydroxy-1-(2-methyl-1-(4-(trifluoromethoxy)phenyl)propyl)-3-(2,2,2-trifluoroethyl)-1H-pyrazolo[3,4-d]pyrimidin-4(5H)-one]: 192 nM; for `CC(C)C(c1ccc(OC(F)(F)F)cc1)n1nc(CC(F)(F)F)c2c(=O)[nH]c(O)nc21` (single isomer, unassigned) [Example 233, (S)- or (R)-6-Hydroxy-1-(2-methyl-1-(4-(trifluoromethoxy)phenyl)propyl)-3-(2,2,2-trifluoroethyl)-1H-pyrazolo[3,4-d]pyrimidin-4(5H)-one]: 132 nM.
The same measure for `CC(c1ccc(C(F)(F)F)c(F)c1)n1nc(CC(F)(F)F)c2c(=O)[nH]c(O)nc21` (single isomer, unassigned) [Example 234, (R)- or (S)-1-(1-(3-Fluoro-4-(trifluoromethyl)phenyl)ethyl)-6-hydroxy-3-(2,2,2-trifluoroethyl)-1H-pyrazolo[3,4-d]pyrimidin-4(5H)-one]: 180 nM; for `CC(c1ccc(C(C)(C)C)cc1)n1nc(CC(F)(F)F)c2c(=O)[nH]c(O)nc21` (single isomer, unassigned) [Example 237, (S)- or (R)-1-(1-(4-tert-Butylphenyl)ethyl)-6-hydroxy-3-(2,2,2-trifluoroethyl)-1H-pyrazolo[3,4-d]pyrimidin-4(5H)-one]: 494 nM.
With `O=c1[nH]c(O)nc2c1c(CC(F)(F)F)nn2C(c1ccc(C(F)(F)F)c(F)c1)C1CC1` (single isomer, unassigned) [Example 239, (S)- or (R)-1-(Cyclopropyl(3-fluoro-4-(trifluoromethyl)phenyl)methyl)-6-hydroxy-3-(2,2,2-trifluoroethyl)-1H-pyrazolo[3,4-d]pyrimidin-4(5H)-one], the Ki turned out to be 166 nM.
As to `CC(C)C(c1ccc(C(F)(F)F)cc1)n1nc(CC(F)(F)F)c2c(=O)[nH]c(O)nc21` (single isomer, unassigned) [Example 241, (S)- or (R)-6-Hydroxy-1-(2-methyl-1-(4-(trifluoromethyl)phenyl)propyl)-3-(2,2,2-trifluoroethyl)-1H-pyrazolo[3,4-d]pyrimidin-4(5H)-one], the Ki came out at 199 nM.
As to `O=c1[nH]c(O)nc2c1c(CC(F)(F)F)nn2C(c1ccc(OC(F)(F)F)cc1)C1CC1` (single isomer, unassigned) [Example 242, (R)- or (S)-1-(Cyclopropyl(4-(trifluoromethoxy)phenyl)methyl)-6-hydroxy-3-(2,2,2-trifluoroelhyl)-1H-pyrazolo[3,4-d]pyrimidin-4(5H)-one], the Ki is 150 nM.
In the case of `O=c1[nH]c(O)nc2c1c(CC(F)(F)F)nn2C(c1ccc(OC(F)(F)F)cc1)C1CC1` (single isomer, unassigned) [Example 243, (S)- or (R)-1-(Cyclopropyl(4-(trifluoromethoxy)phenyl)methyl)-6-hydroxy-3-(2,2,2-trifluoroelhyl)-1H-pyrazolo[3,4-d]pyrimidin-4(5H)-one], the Ki was 191 nM.
Turning to `CC1(C(c2ccc(C(F)(F)F)cc2)n2nc(CC(F)(F)F)c3c(=O)[nH]c(O)nc32)CC1` (single isomer, unassigned) [Example 245, (S)- or (R)-6-Hydroxy-l-((1-methylcyclopropyl)(4-(trifluoromethyl)phenyl)methyl)-3-(2,2,2-trifluoroethyl)-1H-pyrazolo[3,4-d]pyrimidin-4(5H)-one], the Ki stood at 698 nM.
As to `CC(C)(C)c1ccc(C(C2CC2)n2nc(CC(F)(F)F)c3c(=O)[nH]c(O)nc32)cc1` (single isomer, unassigned) [Example 251, (S)- or (R)-1-((4-tert-Butylphenyl)(cyclopropyl)methyl)-6-hydroxy-3-(2,2,2-trifluoroethyl)-1H-pyrazolo[3,4-d]pyrimidin-4(5H)-one], the inhibitory constant (Ki) is 363 nM.
As to `O=c1[nH]c(O)nc2c1c(CC(F)(F)F)nn2C(c1ccc(OC(F)(F)F)c(F)c1)C1CC1` (single isomer, unassigned) [Example 253, (S)- or (R)-1-(Cyclopropyl(3-fluoro-4-(trifluoromethoxy)phenyl)methyl)-6-hydroxy-3-(2,2,2-trifluoroethyl)-1H-pyrazolo[3,4-d]pyrimidin-4(5H)-one], the Ki turned out to be 120 nM.
The value for `CC(C)C(c1ccc(C(F)(F)F)c(F)c1)n1nc(CC(F)(F)F)c2c(=O)[nH]c(O)nc21` (single isomer, unassigned) [Example 259] was 148 nM.
The same measure for `CC(C)C(c1ccc(C(C)(C)C)cc1)n1nc(CC(F)(F)F)c2c(=O)[nH]c(O)nc21` (single isomer, unassigned) [Example 261, (S)- or (R)-1-(1-(4-tert-Butylphenyl)-2-methylpropyl)-6-hydroxy-3-(2,2,2-trifluoroethyl)-1H-pyrazolo[3,4-d]pyrimidin-4(5H)-one]: roughly 1400 nM; for `CC(C)(C)C(c1ccc(C(F)(F)F)cc1)n1nc(CC(F)(F)F)c2c(=O)[nH]c(O)nc21` (single isomer, unassigned) [Example 262, (R)- or (S)-1-(2,2-Dimethyl-1-(4-(trifluoromethyl)phenyl)propyl)-6-hydroxy-3-(2,2,2-trifluoroethyl)-1H-pyrazolo[3,4-d]pyrimidin-4(5H)-one]: 334 nM.
The same measure for `CC(C)(C)C(c1ccc(C(F)(F)F)cc1)n1nc(CC(F)(F)F)c2c(=O)[nH]c(O)nc21` (single isomer, unassigned) [Example 263, (S)- or (R)-1-(2,2-Dimethyl-1-(4-(trifluoromethyl)phenyl)propyl)-6-hydroxy-3-(2,2,2-trifluoroethyl)-1H-pyrazolo[3,4-d]pyrimidin-4(5H)-one]: 5890 nM.
In the case of `CC(C)C(c1ccc(OC(F)(F)F)c(F)c1)n1nc(CC(F)(F)F)c2c(=O)[nH]c(O)nc21` (single isomer, unassigned) [Example 264, (R)- or (S)-1-(1-(3-Fluoro-4-(trifluoromethoxy)phenyl)-2-methylpropyl)-6-hydroxy-3-(2,2,2-trifluoroethyl)-1H-pyrazolo[3,4-d]pyrimidin-4(5H)-one], the Ki was determined as 600 nM.
For `CC(C)C(c1ccc(OC(F)(F)F)c(F)c1)n1nc(CC(F)(F)F)c2c(=O)[nH]c(O)nc21` (single isomer, unassigned) [Example 265, (S)- or (R)-1-(1-(3-Fluoro-4-(trifluoromethoxy)phenyl)-2-methylpropyl)-6-hydroxy-3-(2,2,2-trifluoroethyl)-1H-pyrazolo[3,4-d]pyrimidin-4(5H)-one], the inhibition constant (Ki) amounted to 276 nM.
Take `CC(c1ccc(C(F)(F)F)cc1)n1nc(C(F)(F)C(F)(F)F)c2c(=O)[nH]c(O)nc21` (single isomer, unassigned) [Example 267, (S)- or (R)-6-Hydroxy-3-(perfluoroethyl)-1-(1-(4-(trifluoromethyl)phenyl)ethyl)-1H-pyrazolo[3,4-d]pyrimidin-4(5H)-one]: the Ki came to 448 nM.
